{
  "source": "patent US8574563B2",
  "about": "(Bristol-Myers Squibb Company, priority 2006, dated 2013)",
  "data": [
    {"test_system": "HCV 1b-377-neo replicon cells", "assay": "HCV replicon assay, HCV 1b-377-neo replicon cells (1b FRET)", "format": "cell-based, Hepatitis C virus genotype 1b", "conditions": "HCV 1b-377-neo replicon cells; HCV 1b genotype; read-out: EC50 range against HCV 1b (Table 2, Range)", "method_in_brief": "(§1)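 FRET-based replicon assay in HCV 1b-377-neo cells, including a comparison line carrying the NS5A Y2065H mutation that confers resistance to a reference compound.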", "units": {"EC50": "nM"}, "values": [
      {"smiles": "CC[C@@H](NC(=O)OC)C(=O)N1CCC[C@H]1c1ncc(-c2ccc(-c3ccc(-c4cnc([C@@H]5CCCN5C(=O)[C@@H](c5ccccc5)N(CC)CC)[nH]4)cc3)cc2)[nH]1", "note": "[Example M54, methyl ((1R)-1-(((2S)-2-(5-(4′-(2-((2S)-1-((2R)-2-(diethylamino)-2-phenylacetyl)-2-pyrrolidinyl)-1H-imidazol-5-yl)-4-biphenylyl)-1H-imidazol-2-yl)-1 pyrrolidinyl)carbonyl)propyl) carbamate]", "EC50": "1 to 99"},
      {"smiles": "COC(=O)N[C@@H](C(=O)N1CCC[C@H]1c1ncc(-c2ccc(-c3ccc(-c4cnc([C@@H]5CCCN5C(=O)c5ccccn5)[nH]4)cc3)cc2)[nH]1)c1ccccc1", "note": "[Example 67, methyl ((1R)-2-oxo-1-phenyl-2-((2S)-2-(5-(4′-(2-((2S)-1-(2-pyridinylcarbonyl)-2-pyrrolidinyl)-1H-imidazol-5-yl)-4-biphenylyl)-1H-imidazol-2-yl)-1-pyrrolidinyl)ethyl)carabamate]", "EC50": "0.001 to 0.999"},
      {"smiles": "COC(=O)N[C@@H](C(=O)N1CCC[C@H]1c1ncc(-c2ccc(-c3ccc(-c4cnc([C@@H]5CCCN5C(=O)C(c5ccc(Cl)cc5)N(C)C)[nH]4)cc3)cc2)[nH]1)c1ccccc1", "note": "(stereo partly drawn) [Example 84-58, methyl ((1R)-2-((2S)-2-(5-(4′-(2-((2S)-1-((4-chlorophenyl)(dimethylamino)acetyl)-2-pyrrolidinyl)-1H-imdiazol-5-yl)-4-biphenylyl)-1H-imidazol-2-yl)-1-pyrrolidinyl)-2-oxo-1-phenylethyl)carbamate]", "EC50": "0.001 to 0.999"}
    ]},
    {"test_system": "HCV 1b-377-neo replicon cells", "assay": "HCV replicon assay, HCV 1b-377-neo replicon cells (1b FRET)", "format": "cell-based, Hepatitis C virus genotype 1b", "conditions": "Hepatitis C virus, HCV 1b-377-neo replicon cells; HCV 1b genotype; read-out: EC50 range against HCV 1b (Table 2, Range)", "method_in_brief": "as §1", "units": {"EC50": "nM"}, "values": [
      {"smiles": "COCC[C@H](NC(=O)OC)C(=O)N1CCC[C@H]1c1ncc(-c2ccc(-c3ccc(-c4cnc([C@@H]5CCCN5C(=O)[C@H](CCOC)NC(=O)OC)[nH]4)cc3)cc2)[nH]1", "note": "[cj-156, methyl ((1S)-3-methoxy-1-(((2S)-2-(5-(4′-(2-((2S)-1-(N-(methoxycarbonyl)-O-methyl-L-homoseryl)-2-pyrrolidinyl)-1H-imidazol-5-yl)-4-biphenylyl)-1H-imidazol-2-yl)-1-pyrrolidinyl)carbonyl)propyl)carbamate]", "EC50": "0.001 to 0.999"},
      {"smiles": "Cc1cc(CC(=O)N2CCC[C@H]2c2ncc(-c3ccc(-c4ccc(-c5cnc([C@@H]6CCCN6C(=O)[C@@H](c6ccccc6)N6CCCCC6)[nH]5)cc4)cc3)[nH]2)n[nH]1", "note": "[Example 107-16, 1-((1R)-2-((2S)-2-(5-(4′-(2-((2S)-1-((5-methyl-1H-pyrazo1-3-yl)acetyl)-2-pyrrolidinyl)-1H-imidazol-5-yl)-4-biphenylyl)-1H-imidazol-2-yl)-1-pyrrolidinyl)-2-oxo-1-phenylethyl) piperidine]", "EC50": "0.001 to 0.999"},
      {"smiles": "C[C@@H](c1ncc(-c2ccc(-c3ncc(-c4cnc([C@@H]5CCCN5C(=O)[C@@H](c5ccccc5)N5CCCCC5)[nH]4)cn3)cc2)[nH]1)N(C)C(=O)[C@@H](c1ccccc1)N1CCCCC1", "note": "[Example 152j-6, (2R)-N-methyl-2-phenyl-N-((1S)-1-(4-(4-(5-(2-((2S)-1-((2R)-2-phenyl-2-(1-piperidinyl)acetyl)-2-pyrrolidinyl)-1H-imidazol-5-yl)-2-pyrimidinyl)phenyl)-1H-imidazol-2-yl)ethyl)-2-(1-piperidinyl)acetamide]", "EC50": "0.001 to 0.999"},
      {"smiles": "COC(=O)N[C@H](C(=O)N1CCC[C@H]1c1ncc(-c2ccc(-c3ccc(-c4cnc([C@]5(C)CCCN5C(=O)[C@@H](NC(=O)OC)C(C)C)[nH]4)cc3)cc2)[nH]1)C(C)C", "note": "[LS36, methyl ((1S)-1-(((2S)-2-(5-(4′-(2-((2S)-1-((2S)-2-((methoxycarbonyl)amino)-3-methylbutanoyl)-2-pyrrolidinyl)-1H-imidazol-5-yl)-4-biphenylyl)-1H-imidazol-2-yl)-2-methyl-1-pyrrolidinyl)carbonyl)-2-methylpropyl)carbamate]", "EC50": "0.001 to 0.999"},
      {"smiles": "COC(=O)N[C@@H](C(=O)N1CCC[C@H]1c1ncc(-c2ccc(-c3ccc(-c4[nH]c([C@@H]5CCCN5C(=O)[C@H](NC(=O)OC)c5ccccc5)nc4C(N)=O)cc3)cc2)[nH]1)c1ccccc1", "note": "[Example J29, methyl ((1R)-2-((2S)-2-(4-carbamoyl-5-(4′-(2-((2S)-1-((2R)-2-((methoxycarbonyl)amino)-2-phenylacetyl)-2-pyrrolidinyl)-1H-imidazol-5-yl)-4-biphenylyl)-1H-imidazol-2-yl)-1-pyrrolidinyl)-2-oxo-1-phenylethyl)carbamate]", "EC50": "0.001 to 0.999"},
      {"smiles": "COC(=O)N[C@@H](C(=O)N1CCC[C@H]1c1ncc(-c2ccc(-c3ccc(-c4cnc([C@@H]5CCCN5C(=O)CN5CCOCC5)[nH]4)cc3)cc2)[nH]1)c1ccccc1", "note": "[Example 39, methyl ((1R)-2-((2S)-2-(5-(4′-(2-((2S)-1-(4-morpholinylacetyl)-2-pyrrolidinyl)-1H-imidazol-5-yl)-4-biphenylyl)-1H-imidazol-2-yl)-1-pyrrolidinyl)-2-oxo-1-phenylethyl)carbamate]", "EC50": "0.001 to 0.999"},
      {"smiles": "COC(=O)N[C@@H](C)C(=O)N1CCC[C@H]1c1ncc(-c2ccc(-c3ccc(-c4cnc([C@@H]5CCCN5C(=O)[C@@H](NC(=O)OC)C(C)C)[nH]4)c(F)c3)cc2F)[nH]1", "note": "[Example D57, methyl ((1S)-1-(((2S)-2-(5-(3,3′-difluoro-4′-(2-((2S)-1-(N-(methoxycarbonyl)-L-alanyl)-2-pyrrolidinyl)-1H-imidazol-5-yl)-4-biphenylyl)-1H-imidazol-2-yl)-1-pyrrolidinyl)carbonyl)-2-methylpropyl) carbamate]", "EC50": "0.001 to 0.999"},
      {"smiles": "COC(=O)N[C@@H](Cc1ccc(OCc2ccccc2)cc1)C(=O)N1CCC[C@H]1c1ncc(-c2ccc(-c3ccc(-c4cnc([C@@H]5CCCN5C(=O)[C@@H](NC(=O)OC)[C@@H](C)OC)[nH]4)cc3)cc2)[nH]1", "note": "[cj-105, methyl ((1S,2R)-1-(((2S)-2-(5-(4′-(2-((2S)-1-(O-benzyl-N-(methoxycarbonyl)-L-tyrosyl)-2-pyrrolidinyl)-1H-imidazol-5-yl)-4-biphenylyl)-1H-imidazol-2-yl)-1-pyrrolidinyl)carbonyl)-2-methoxypropyl)carbamate]", "EC50": "0.001 to 0.999"},
      {"smiles": "CCN(CC)[C@H](C)C(=O)N1CCC[C@H]1c1ncc(-c2ccc(-c3ccc(-c4cnc([C@@H]5CCCN5C(=O)[C@@H](NC(=O)OC)C(C)C)[nH]4)c(F)c3)cc2F)[nH]1", "note": "[Example D59, methyl ((1S)-1-(((2S)-2-(5-(4′-(2-((2S)-1-(N,N-diethyl-D-alanyl)-2-pyrrolidinyl)-1H-imidazol-5-yl)-3,3′-difluoro-4-biphenylyl)-1H-imidazol-2-yl)-1-pyrrolidinyl)carbonyl)-2-methylpropyl) carbamate]", "EC50": "0.001 to 0.999"},
      {"smiles": "CO[C@@H](C(=O)N1CCC[C@H]1c1ncc(-c2ccc(-c3ccc(-c4cnc([C@@H]5CCCN5C(=O)[C@H](OC)c5ccccc5)[nH]4)cc3)cc2)[nH]1)c1ccccc1", "note": "[Example 8, 5,5′-(4,4′-biphenyldiyl)bis(2-((2S)-1-((2R)-2-methoxy-2-phenylacetyl)-2-pyrrolidinyl)-1H-imidazole)]", "EC50": "0.001 to 0.999"},
      {"smiles": "CN(C)[C@@H](C(=O)N1CCC[C@H]1c1ncc(-c2ccc(-c3ccc(-c4cnc([C@@H]5CCCN5C(=O)[C@@H](c5ccccc5)N(C)C)[nH]4)nn3)nn2)[nH]1)c1ccccc1", "note": "[Example 153c-1, (1R,1′R)-2,2′-(3,3′-bipyridazine-6,6′-diylbis(1H-imidazole-5,2-diyl(2S)-2,1-pyrrolidinediyl))bis(N,N-dimethyl-2-oxo-1-phenylethanamine)]", "EC50": "1 to 99"},
      {"smiles": "O=C([C@H](O)c1ccccc1)N1C[C@@H](O)C[C@H]1c1ncc(-c2ccc(-c3ccc(-c4cnc([C@@H]5C[C@H](O)CN5C(=O)[C@H](O)c5ccccc5)[nH]4)cc3)cc2)[nH]1", "note": "[Example 24-18, (3S,5S,3′S,5′S)-5,5′-(4,4′-biphenyldiylbis(1H-imidazole-5,2-diyl))bis(1-((2R)-2-hydroxy-2-phenylacetyl)-3-pyrrolidinol)]", "EC50": "0.001 to 0.999"},
      {"smiles": "CCCN[C@@H](C(=O)N1CCC[C@H]1c1nc(-c2ccc(-c3ccc(-c4cnc([C@@H]5CCCN5C(=O)[C@H](NCCC)c5ccccc5)[nH]4)cc3)cc2)c[nH]1)c1ccccc1", "note": "[Example F16, N-((1R)-2-oxo-1-phenyl-2-((2S)-2-(4-(4′-(2-((2S)-1-((2R)-2-phenyl-2-(propylamino)acetyl)-2-pyrrolidinyl)-1H-imidazol-5-yl)-4-biphenylyl)-1H-imidazol-2-yl)-1-pyrrolidinyl)ethyl)-1-propanamine]", "EC50": "0.001 to 0.999"},
      {"smiles": "COC(=O)N[C@H](C(=O)N1CCC[C@H]1c1ncc(-c2ccc(-c3ccc(-c4cnc([C@@H]5CCCN5C(=O)[C@H](NC5=NCCN5)C(C)C)[nH]4)cc3)cc2)[nH]1)C1CC1", "note": "[cj-11o, methyl ((1S)-1-cyclopropyl-2-((2S)-2-(5-(4′-(2-((2S)-1-(N-(4,5-dihydro-1H-imidazol-2-yl)-D-valyl)-2-pyrrolidinyl)-1H-imidazol-5-yl)-4-biphenylyl)-1H-imidazol-2-yl)-1-pyrrolidinyl)-2-oxoethyl)carbamate]", "EC50": "1 to 99"},
      {"smiles": "CC[C@H](NC(=O)OC)C(=O)N1[C@H](c2ncc(-c3ccc(-c4ccc(-c5cnc([C@@H]6C[C@@H]7C[C@@H]7N6C(=O)[C@H](CC)NC(=O)OC)[nH]5)cc4)cc3)[nH]2)C[C@@H]2C[C@@H]21", "note": "[Example M126, dimethyl (4,4′-biphenyldiylbis(1H-imidazole-5,2-diyl(1S,3S,5S)-2-azabicyclo[3.1.0]hexane-3,2-diyl((2S)-1-oxo-1,2-butanediyl)))biscarbamate]", "EC50": "1 to 99"},
      {"smiles": "CN(C)[C@@H](C(=O)N1CCC[C@H]1c1ncc(-c2ccc(-c3ccc(-c4cnc([C@@H]5CCCN5C(=O)c5cccc(C(=O)c6ccccc6)c5)[nH]4)cc3)cc2)[nH]1)c1ccccc1", "note": "[Example 94-32, (3-(((2S)-2-(5-(4′-(2-((2S)-1-((2R)-2-(dimethylamino)-2-phenylacetyl)-2-pyrrolidinyl)-1H-imidazol-5-yl)-4-biphenylyl)-1H-imidazol-2-yl)-1-pyrrolidinyl)carbonyl)phenyl)(phenyl)methanone]", "EC50": "1 to 99"}
    ]}
  ]
}
